Earlier results, collected in patent US20060189550A1, “Immunostimulatory, Covalently lipidated oligonucleotides” (Biomira Inc., priority 2002, published 2006).

Conditions: Table K-2, reference compounds; experimental database value from LogKow

| SMILES | LogP Exp |
| --- | --- |
| Cc1c[nH]c2ccccc12 [3-methyl indole] | 2.60 |
| CCSC [Ethane, (methylthio)-] | 1.54 |
| CCCCOC [methyl n-butyl ether] | 1.66 |
| O=c1ccc2cc3ccoc3cc2o1 [psoralen] | 1.67 |
